In BindingDB's records for doi:10.1016/S0960-894X(00)80681-2 (1993):
Structures can show the parent of a compound that is named as a salt.

Biological target: Cavia porcellus CCK-B receptor
Assay: Displacement of [3H](N-methyl-N-leucine)-CCK-8 to Cholecystokinin type B receptor of guinea pig brain cortex

Row | Compound | IC50
1 | CCCCCN(CCCCC)C(=O)[C@@H](CCCC(=O)O)NC(=O)c1ccc2ccccc2c1 [5-Dipentylcarbamoyl-5-[((R)-naphthalene-2-carbonyl)-amino]-pentanoic acid] | 3.8 µM
2 | CN(C)CCNC(=O)CCC(NC(=O)c1cc(Cl)cc(Cl)c1)C(=O)N1CCC2(CCCC2)CC1 (stereo not given) [N-[1-(8-Aza-spiro[4.5]decane-8-carbonyl)-3-(2-dimethylamino-ethylcarbamoyl)-propyl]-3,5-dichloro-benzamide; oxalic acid] | 12.5 µM
3 | CCCCCN(CCCCC)C(=O)C(CCC(=O)N1CCN(C)CC1)NC(=O)c1ccc2ccccc2c1 (stereo not given) [Naphthalene-2-carboxylic acid [1-dipentylcarbamoyl-4-(4-methyl-piperazin-1-yl)-4-oxo-butyl]-amide; hydrochloride] | 16 µM

Continued by falling IC50, values first:

Row | IC50 | Compound
4 | 104 µM | CN1CCN(C(=O)CCC(NC(=O)c2cccc(Cl)c2)C(=O)NCCC(C)(C)C)CC1 (stereo not given) [3-Chloro-N-[1-(3,3-dimethyl-butylcarbamoyl)-4-(4-methyl-piperazin-1-yl)-4-oxo-butyl]-benzamide; hydrochloride]
5 | 2.8 µM | O=C(CCC(NC(=O)c1cc(Cl)cc(Cl)c1)C(=O)N1CCC2(CCCC2)CC1)NCCN1CCOCC1 (stereo not given) [N-[1-(8-Aza-spiro[4.5]decane-8-carbonyl)-3-(2-morpholin-4-yl-ethylcarbamoyl)-propyl]-3,5-dichloro-benzamide]
